Data published in patent publication EP0174085A2, “Bisarylamides of N,N'-di-[1-aminoalkyl-2]-alkylene diamines having a cardiovascular activity” (BEECHAM - WUELFING GmbH & Co. KG, priority 1984, dated 1986).

What was measured:
[1] = system: anaesthetized rats; experiment: Antianginal activity, vasopressin-induced ST-segment elevation in the ECG, i.v.; type: in vivo; settings: Rattus norvegicus, iv, reduction of ST-segment elevation after i.v. 1 I.U./kg vasopressin, read-out: minimum effective i.v. antianginal dose
[2] = system: guinea-pig papillary muscle; experiment: Ca++-antagonistic activity, calcium dependent action potentials in papillary muscle in vitro; type: cell-based; settings: 1-3 x 10^-6M; 34+ 1°C; krebs medium containing 26 nM K+ and 0.5 nM BaCl2
Method: In guinea-pig papillary muscle (34+ 1°C) in vitro, the Compound (El) (1-3 x 10-^6M) depressed the maximal rate of rise (Vmax) of calcium dependent action potentials evoked in krebs medium containing […] K^+ and […], BaC12. These action potentials were recorded using conventional intracellular techniques.

[3] = system: conscious rabbits; experiment: Antiarrhythmic activity, suprathreshold cardiac electric stimulation in conscious rabbits; type: in vivo
Method: Compound (El) infused at 2.5mg/min in the ear vein of conscious rabbits inhibited the arrhythmogenic effect of suprathreshold cardiac electric stimulation. The therapeutic index, i.e. the ratio between the dose of compound required to produce A-V-block (8 mg/kg) and that dose which gave an antiarrhythmic effect (0.9mg/kg) was 8.9.

[4] = system: anaesthetized rats; experiment: Vasopressin test in anaesthetized rats (coronary spasm), intraduodenal; type: in vivo; settings: 32mg/kg i.d.
Method: Vasopressin (Lysopressin: 1 I.U./kg) was administered intravenously in order to provoke coronary spasm. Compound (El) was active against coronary spasm at a dose of 32mg/kg i.d. with a duration of action greater than 2 hours. The ability of test compounds to reduce coronary spasm is taken as a measure of their anti-anginal potential in spasm - induced angina pectoris. (Ref. Drug.Res. 33(11), 8,1117-1121 (1983)).

[5] = system: anaesthetized rats; experiment: Haemodynamic profile in anaesthetized rats; type: in vivo; parameters: Dhr20 = i.v. dose which reduces heart rate by ca. 20%: unit not given here; settings: for %effect of Dhr20 on LVP (systolic left ventricular pressure) / %effect of Dhr20 on dp/dtmax / %effect of Dhr20 on BP (mean arterial blood pressure): at Dhr20, i.v.; for %effect of Dhr20 on LVP (systolic left ventricular pressure) / %effect of Dhr20 on dp/dtmax / Dhr20 = i.v. dose which reduces heart rate by ca. 20% / %effect of Dhr20 on BP (mean arterial blood pressure): rat; for %effect of Dhr20 on dp/dtmax: left ventricular dp/dt max
Excerpt: The effect of compounds of the invention on heart rate, systolic left ventricular pressure, left ventricular dp/dt max and mean arterial blood pressure was investigated so as to obtain information on the anti-anginal potential of these compounds, by reducing the oxygen demand of the ischaemic heart.

| SMILES | minimal effective dose [1] | maximal rate of rise (Vmax) of calcium dependent action potentials [2] | minimal effective dose ([3]; Oryctolagus cuniculus, iv, infusion in the ear vein, conscious rabbits, read-out: dose which gave an antiarrhythmic effect) | arrhythmogenic effect of suprathreshold cardiac electric stimulation ([3]; infused at 2.5mg/min in the ear vein, conscious rabbits) | dose of compound required to produce A-V-block ([3]; infusion in the ear vein, conscious rabbits) | therapeutic index ([3]; ratio of A-V-block dose to antiarrhythmic dose) | duration of action ([4]; against coronary spasm) | activity against coronary spasm ([4]; vasopressin (Lysopressin) 1 I.U./kg i.v.) | %effect of Dhr20 on LVP (systolic left ventricular pressure) [5] | %effect of Dhr20 on dp/dtmax [5] | i.v. duration of action on heart rate (rat) [5] | Dhr20 = i.v. dose which reduces heart rate by ca. 20% [5] | %effect of Dhr20 on BP (mean arterial blood pressure) [5] |
| --- | --- | --- | --- | --- | --- | --- | --- | --- | --- | --- | --- | --- | --- |
| CCC(CNC(=O)c1cc(OC)c(OC)c(OC)c1)N(C)CCN(C)C(CC)CNC(=O)c1cc(OC)c(OC)c(OC)c1 (stereo not drawn) [Compound E1, N,N'-dimethyl-N,N'-di-[1-(3,4,5-trimethoxybenzamido)-butyl-(2)]-ethylenediamine] | 0.2 mg/kg | depressed | 0.9 mg/kg | inhibited | 8 mg/kg | 8.9 | greater than 2 hours | active | -17% | -24% | 5 min | 3.2 | – |
| CCC(CNC(=O)c1cc(Cl)cc(Cl)c1)N(C)CCN(C)C(CC)CNC(=O)c1cc(Cl)cc(Cl)c1 (stereo not drawn) [Compound E2, N,N'-dimethyl-N,N'-di-(2-[1-(3,5-dichlorobenzamido)] -butyl)-ethylene-diamine] | – | – | – | – | – | – | – | – | – | -21% | 15 min | 3.2 | -7% |
| CCC(CNC(=O)c1cccc(Cl)c1)N(C)CCN(C)C(CC)CNC(=O)c1cccc(Cl)c1 (stereo not drawn) [Compound E3] | – | – | – | – | – | – | – | – | -2% | -15% | 10 min | 1.6 | -16% |
| CCC(CNC(=O)c1ccc(C#N)cc1)N(C)CCN(C)C(CC)CNC(=O)c1ccc(C#N)cc1 (stereo not drawn) [Compound E7] | – | – | – | – | – | – | – | – | -5% | -15% | 5 to 10 min | 3.2 | -6% |
| CC[C@@H](CNC(=O)c1cc(OC)c(OC)c(OC)c1)N(C)CCN(C)[C@@H](CC)CNC(=O)c1cc(OC)c(OC)c(OC)c1 [Compound E8] | – | – | – | – | – | – | – | – | -29% | -36% | – | 3.2 | -30% |
| CCC(CNC(=O)c1ccc(OC)c(OC)c1)N(C)CCN(C)C(CC)CNC(=O)c1ccc(OC)c(OC)c1 (stereo not drawn) [Compound E11] | – | – | – | – | – | – | – | – | -4% | -7% | 5 to 10 min | 3.2 | -2% |
| CCC(CNC(=O)c1ccc2c(c1)OCO2)N(C)CCN(C)C(CC)CNC(=O)c1ccc2c(c1)OCO2 (stereo not drawn) [Compound E12] | – | – | – | – | – | – | – | – | -8% | -11% | 10 to 15 min | 1.6 | -4% |
| COc1cc(C(=O)NCC2CCCCN2CCN2CCCCC2CNC(=O)c2cc(OC)c(OC)c(OC)c2)cc(OC)c1OC (stereo not drawn) [Compound E16] | – | – | – | – | – | – | – | – | -17.3% | -32% | 10 min | 6.4 | -17% |
| CCC(CNC(=O)c1ccncc1)N(C)CCN(C)C(CC)CNC(=O)c1ccncc1 (stereo not drawn) [Compound E29] | – | – | – | – | – | – | – | – | -6% | -2% | 10 min | 12.8 | -10% |
| CCC(CNC(=O)c1cccnc1)N(C)CCN(C)C(CC)CNC(=O)c1cccnc1 (stereo not drawn) [Compound E30, N,N'-dimethyl-N,N'-di[1-nicotinoylamido-butyl-(2)]-ethylene-diamine] | – | – | – | – | – | – | – | – | -9% | -15% | 10 min | 12.8 | -14% |
| CCC(CNC(=O)c1cc(OC)c(OC)c(OC)c1)N1CCC(N(C)C(CC)CNC(=O)c2cc(OC)c(OC)c(OC)c2)CC1 (stereo not drawn) [Compound E38, 1-[1-(3,4,5-trimethoxybenzamido-butyl-(2))]-4-N-methyl-N-[1-(3,4,5-trimethoxybenzamido-butyl-(2))]-amino-piperidine] | – | – | – | – | – | – | – | – | -7% | -32% | 10 to 15 min | 12.8 | -6% |
